Test results: publication PMC3804129 (Journal of medicinal chemistry, 2013)

Target: T1, human VAChT (Homo sapiens, UniProt Q16572)
T1 sequence (Q16572 1-532): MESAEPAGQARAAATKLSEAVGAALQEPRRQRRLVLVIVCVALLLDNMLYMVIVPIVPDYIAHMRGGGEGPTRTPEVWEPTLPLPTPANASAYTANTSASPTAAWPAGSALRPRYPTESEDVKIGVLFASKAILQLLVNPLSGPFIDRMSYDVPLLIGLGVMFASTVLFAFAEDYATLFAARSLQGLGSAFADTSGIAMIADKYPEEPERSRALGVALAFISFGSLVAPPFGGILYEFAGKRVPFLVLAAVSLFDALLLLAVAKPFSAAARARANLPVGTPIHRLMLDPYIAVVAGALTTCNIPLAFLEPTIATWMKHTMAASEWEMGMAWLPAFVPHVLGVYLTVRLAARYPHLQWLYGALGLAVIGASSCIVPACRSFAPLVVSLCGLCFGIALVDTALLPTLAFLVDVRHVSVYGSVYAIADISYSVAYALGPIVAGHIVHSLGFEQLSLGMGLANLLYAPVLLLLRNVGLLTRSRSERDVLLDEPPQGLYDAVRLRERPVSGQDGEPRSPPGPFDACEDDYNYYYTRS
Experiment: VAChT binding assay, displacement of
Conditions: for decrease in affinity for VAChT compared to 9: relative to compound 9; for selectivity for VAChT over σ receptors (σ1 and σ2): versus either sigma receptor type; for decrease in affinity for VAChT compared to 19e: relative to compound 19e; for VAChT selectivity Kiσ1/Ki VAChT: Ki for σ1 divided by Ki for VAChT

For Cn1cccc1C(=O)C1CCN(C2Cc3ccccc3CC2O)CC1 (racemic) [Compound 19a, (1-(3-Hydroxy-1,2,3,4-tetrahydronaphthalen-2-yl)piperidin-4-yl)(1-methyl-1H-pyrrol-2-yl)methanone], the “decrease in affinity for VAChT compared to 9” value was 4-5 fold and the “selectivity for VAChT over σ receptors (σ1 and σ2)” value was over 70 fold.
For Cn1ccc(C(=O)C2CCN(C3Cc4ccccc4CC3O)CC2)c1 (racemic) [Compound 19b, (1-(3-Hydroxy-1,2,3,4-tetrahydronaphthalen-2-yl)piperidin-4-yl)(1-methyl-1H-pyrrol-3-yl)methanone], the “decrease in affinity for VAChT compared to 9” value was 4-5 fold.
For O=C(c1cccnc1)C1CCN(C2Cc3ccccc3CC2O)CC1 (racemic) [Compound 19c, (1-(3-Hydroxy-1,2,3,4-tetrahydronaphthalen-2-yl)piperidin-4-yl)(pyridin-3-yl)methanone], the “lower affinity for VAChT compared to benzoyl counterpart 5” value (relative to compound 5) was 5 fold.
With COc1cccnc1C(=O)C1CCN(C2Cc3ccccc3CC2O)CC1 (racemic) [Compound 19f, (1-(3-Hydroxy-1,2,3,4-tetrahydronaphthalen-2-yl)piperidin-4-yl)(3-methoxypyridin-2-yl)methanone] the “decrease in affinity for VAChT compared to 19e” value was 15 fold.
For O=C(c1cncc(F)c1)C1CCN(C2Cc3ccccc3CC2O)CC1 (racemic) [Compound 19g, (5-Fluoropyridin-3-yl)(1-(3-hydroxy-1,2,3,4-tetrahydronaphthalen-2-yl)piperidin-4-yl)methanone], the “selectivity for VAChT over σ receptors (σ1 and σ2)” value was over 70 fold.
O=C(c1cccnc1F)C1CCN(C2Cc3ccccc3CC2O)CC1 (racemic) [Compound 19k, (2-Fluoropyridin-3-yl)(1-(3-hydroxy-1,2,3,4-tetrahydronaphthalen-2-yl)piperidin-4-yl)methanone] was tested, and the “VAChT selectivity Kiσ1/Ki VAChT” value was 100.
In the case of CNc1ccc(C(=O)C2CCN(C3Cc4ccccc4CC3O)CC2)cc1 (racemic) [Compound 24b, (1-(3-Hydroxy-1,2,3,4-tetrahydronaphthalen-2-yl)piperidin-4-yl)(4-(methylamino)phenyl) methanone], the “VAChT selectivity Kiσ1/Ki VAChT” value is reported as 100.
O=C(c1ccc(OCCF)nc1)C1CCN(C2Cc3ccccc3CC2O)CC1 (racemic) [Compound 26a, (6-(2-Fluoroethoxy)pyridin-3-yl)(1-(3-hydroxy-1,2,3,4-tetrahydronaphthalen-2-yl)-piperidin-4-yl)methanone] was tested, and the “decrease in affinity for VAChT compared to 19e” value was 4.5 fold.
For Cn1cccc1C(=O)C1CCN(C2Cc3c(N)cccc3CC2O)CC1 (racemic) [Compound 30a, (1-(8-Amino-3-hydroxy-1,2,3,4-tetrahydronaphthalen-2-yl)piperidin-4-yl)(1-methyl-1Hpyrrol-2-yl)methanone], the “higher VAChT binding affinity than 31a” value (relative to compound 31a) was 60 fold.
